The values that follow come from ChEMBL document CHEMBL5344466, “Pyrrolidinone Derivatives as NIK Inhibitors for Treating Inflammatory and Autoimmune Diseases” (ACS Med Chem Lett, 2024).

For orientation: IC50 means the concentration at which inhibition is half-maximal. A lower IC50 goes with greater potency in that assay.

The test concerns the target Mitogen-activated protein kinase kinase kinase 14 (Homo sapiens, UniProt Q99558). The test is described as follows: Inhibition of auto-phosphorylation of human GST-tagged NIK/MAP3K14 measured for 2 hrs by AlphaScreen assay.

Each structure is given as a SMILES string.

Mitogen-activated protein kinase kinase kinase 14, sequence (Q99558 whole entry): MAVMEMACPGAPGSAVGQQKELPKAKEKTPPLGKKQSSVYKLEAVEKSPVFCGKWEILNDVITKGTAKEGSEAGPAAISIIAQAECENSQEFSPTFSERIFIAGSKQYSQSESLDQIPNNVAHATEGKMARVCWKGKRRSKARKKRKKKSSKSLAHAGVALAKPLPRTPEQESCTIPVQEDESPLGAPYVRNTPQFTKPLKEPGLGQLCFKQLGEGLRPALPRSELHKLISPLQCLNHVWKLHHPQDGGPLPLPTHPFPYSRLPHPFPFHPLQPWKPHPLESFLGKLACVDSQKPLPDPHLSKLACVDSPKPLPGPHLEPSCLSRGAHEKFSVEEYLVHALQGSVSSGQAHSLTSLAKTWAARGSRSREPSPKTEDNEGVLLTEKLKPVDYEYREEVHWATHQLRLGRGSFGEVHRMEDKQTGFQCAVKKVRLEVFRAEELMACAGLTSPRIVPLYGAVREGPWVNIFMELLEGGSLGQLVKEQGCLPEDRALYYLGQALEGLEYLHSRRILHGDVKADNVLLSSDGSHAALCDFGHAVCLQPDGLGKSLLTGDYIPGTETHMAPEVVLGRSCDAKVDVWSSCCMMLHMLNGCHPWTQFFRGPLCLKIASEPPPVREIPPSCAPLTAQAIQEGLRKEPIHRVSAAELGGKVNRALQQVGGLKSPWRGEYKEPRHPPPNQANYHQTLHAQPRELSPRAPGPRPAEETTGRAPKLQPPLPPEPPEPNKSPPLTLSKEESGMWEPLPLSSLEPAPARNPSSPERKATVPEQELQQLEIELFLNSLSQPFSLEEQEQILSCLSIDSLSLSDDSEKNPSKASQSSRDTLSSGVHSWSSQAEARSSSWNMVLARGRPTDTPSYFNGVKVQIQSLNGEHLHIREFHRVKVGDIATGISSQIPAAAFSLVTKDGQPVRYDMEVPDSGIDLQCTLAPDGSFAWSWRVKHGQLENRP

With `CN1CCC(O)(c2cn(-c3cccc(-c4nc(C(N)=O)c5ccccc5n4)c3)cn2)C1=O` (stereo unspecified), the IC50 is below 0.1 µM. `CN1CC[C@@](O)(c2cc(-c3cccc(-c4cc(C5CC5)nc(C(N)=O)n4)c3)no2)C1=O` showed an IC50 below 0.1 µM. Consider `CN1CC[C@@](O)(c2cc(-c3cccc(-c4nc(C(N)=O)c(Br)s4)c3)no2)C1=O`, for which the concentration for half-maximal inhibition (IC50) was below 0.1 µM. The same measure for `CN1CC[C@@](O)(c2cc(-c3cccc(-c4ccc(C(N)=O)o4)c3)no2)C1=O`: below 0.1 µM. As to `CN1CC[C@@](O)(c2cc(-c3cccc(-c4cc(N5CC(F)(F)C5)cc(C(N)=O)n4)c3)no2)C1=O`, the IC50 is below 0.1 µM. Take `[2H]c1nc(N)c2nc(-c3cccc(-c4cnc([C@@]5(O)CCN(C)C5=O)s4)c3)ccc2n1`: the half-maximal inhibitory concentration (IC50) was below 0.1 µM.
